Laboratory results as given in patent EP3046573B1, “AMYLIN ANALOGUES” (Zealand Pharma A/S, priority 2013, dated 2015).
Marks after values point to notes of the source that are not given here. Numbered stars: 1 amine (or outer) side, 2 acyl side, 3 side chain; on linkers, the order of the positions; unused ones are H or OH. Bridge positions count the residues as written; N and C are the ends. Square brackets hold non-standard residues; d marks the D form. Peptide text beside a SMILES is read from it. * marks the point of attachment. C20 diacid = O=C(O)CCCCCCCCCCCCCCCCCCC(=O)*; γGlu = O=C(O)[C@H](CCC(=O)[*:2])N[*:1]; NMeI = CC[C@H](C)[C@H](NC)C(=O)O; Sar = CNCC(=O)O

Experiments:
[1] = Solubility assessment (turbidity absorbance at 325 nm); type: physicochemical; conditions: stock 2 mg/ml diluted 1:1, ambient temperature (typically 25°C), n=1; for Solubility, Acetate buffer pH 4: 100 mM acetate buffer pH 4.0; for Solubility, Acetate buffer pH 5: 100 mM acetate buffer pH 5.0; for Solubility, Histidine buffer pH 6: 100 mM histidine buffer pH 6.0; for Solubility, Histidine buffer pH 7: 100 mM histidine buffer pH 7.0; for Solubility, Phosphate buffer pH 6: 100 mM phosphate buffer pH 6.0; for Solubility, Phosphate buffer pH 7: 100 mM phosphate buffer pH 7.0; for Solubility, Phosphate buffer pH 7.5: 100 mM phosphate buffer pH7.5
In short: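 Peptide stock (2 mg/ml, water pH 2.5) diluted 1:1 into 100 mM acetate (pH 4.0, 5.0), histidine (pH 6.0, 7.0) or phosphate (pH 6.0–7.5) buffer; absorbance at 325 nm read at about 25°C, n=1. A325 ≤ 0.02 taken as solubility ≥ 1 mg/ml.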

[2] = Assessment of physical stability: fibril formation detected with Thioflavin T (ThT), lag-time; type: physicochemical; conditions: 1 mg/ml peptide, 40 µM ThT, FND = Fibrillation not detected; for Fibrillation lag time (hours) pH 4.0 (Ac): 50 mM acetate buffer pH 4.0, 96 hours at 40°C; for Fibrillation lag time (hours) pH 7.0 (His): 50 mM histidine buffer pH 7.0, 96 hours at 40°C; for Fibrillation lag time (hours) pH 7.0 (Ph): 50 mM phosphate buffer pH 7.0, 96 hours at 40°C
In short: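 Test peptide at 1 mg/ml with 40 µM ThT in 50 mM phosphate (pH 7.0), 50 mM histidine (pH 7.0) or 50 mM acetate (pH 4.0), in triplicate, 40° C. for 96 h. Fluorescence read every 10 min after 300 s agitation. Lag-time (h) taken as intersection of linear fits to initial stable and growth phases.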

[3] = test system: Sprague Dawley (SD) rats; test: Acute food intake and body weight in normal Sprague Dawley rats; type: in vivo; conditions: vehicle-corrected, dose 30 nmol/kg sc, once; for Body weight loss (%) after 96 hours: mean ± SEM, n = 8
In short: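 Normal male-unspecified SD rats, n = 8 per group, given a single s.c. peptide dose of 30 nmol/kg just before dark phase, with vehicle and positive control groups. Food intake recorded at 0, 4, 7, 10, 24, 48, 72 and 96 h; body weight daily; means ± SEM.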

SMILES | Solubility, Acetate buffer pH 4 [1] | Solubility, Acetate buffer pH 5 [1] | Solubility, Histidine buffer pH 6 [1] | Solubility, Histidine buffer pH 7 [1] | Solubility, Phosphate buffer pH 6 [1] | Solubility, Phosphate buffer pH 7 [1] | Solubility, Phosphate buffer pH 7.5 [1] | Fibrillation lag time (hours) pH 4.0 (Ac) [2] | Fibrillation lag time (hours) pH 7.0 (His) [2] | Fibrillation lag time (hours) pH 7.0 (Ph) [2] | Food intake inhibition (%) after 48 hours [3] [%] | Body weight loss (%) after 96 hours [3] [%]
CC[C@H](C)[C@@H](C(=O)N[C@@H](CC(C)C)C(=O)N[C@@H](CO)C(=O)N[C@@H](CO)C(=O)N[C@H](C(=O)N[C@@H](CCC(=O)O)C(=O)N[C@H](C(=O)NCC(=O)N[C@@H](CO)C(=O)N[C@@H](CCC(=O)O)C(=O)N[C@H](C(=O)N1CCC[C@H]1C(N)=O)[C@@H](C)O)C(C)C)[C@@H](C)O)N(C)C(=O)[C@H](C)NC(=O)CN(C)C(=O)[C@H](Cc1ccccc1)NC(=O)[C@H](CO)NC(=O)[C@H](CO)NC(=O)[C@H](CO)NC(=O)[C@H](CO)NC(=O)[C@H](CCCNC(=N)N)NC(=O)[C@H](Cc1c[nH]cn1)NC(=O)[C@H](CC(C)C)NC(=O)[C@H](Cc1ccccc1)NC(=O)[C@H](CCC(=O)O)NC(=O)[C@H](C)NC(=O)[C@H](CC(C)C)NC(=O)[C@H](CCCNC(=N)N)NC(=O)[C@H](CCC(N)=O)NC(=O)[C@@H](NC(=O)[C@H](C)NC(=O)[C@@H]1CSSC[C@H](NC(=O)[C@H](CCCNC(=N)N)NC(=O)CC[C@H](NC(=O)CCCCCCCCCCCCCCCCCCC(=O)O)C(=O)O)C(=O)N[C@@H](CC(N)=O)C(=O)N[C@@H]([C@@H](C)O)C(=O)N[C@@H](C)C(=O)N[C@@H]([C@@H](C)O)C(=O)N1)[C@@H](C)O [Compound 76, [19CD]-isoGlu-RC()NTATC()ATQRLAEFLHRSSSSF-Gly(Me)-A-Ile(Me)-LSSTEVGSETP-NH2] ({C20 diacid-γGlu}-RCNTATCATQRLAEFLHRSSSSF[Sar]A[NMeI]LSSTEVGSETP-NH2; disulfide 2-7) | SS (SS indicates solubility ≥ 1mg/ml) | II (II indicates solubility ≤ 1 mg/ml) | SS (SS indicates solubility ≥ 1mg/ml) | SS (SS indicates solubility ≥ 1mg/ml) | SS (SS indicates solubility ≥ 1mg/ml) | SS (SS indicates solubility ≥ 1mg/ml) | SS (SS indicates solubility ≥ 1mg/ml) | FND | FND | FND | 100 | 11 ± 1.2
CC[C@H](C)[C@@H](C(=O)N[C@@H](CC(C)C)C(=O)N[C@@H](CO)C(=O)N[C@@H](CO)C(=O)N[C@H](C(=O)N[C@@H](CCC(=O)O)C(=O)N[C@H](C(=O)NCC(=O)N[C@@H](CO)C(=O)N[C@@H](CCC(=O)O)C(=O)N[C@H](C(=O)N1CCC[C@H]1C(N)=O)[C@@H](C)O)C(C)C)[C@@H](C)O)N(C)C(=O)[C@H](C)NC(=O)CN(C)C(=O)[C@H](Cc1ccccc1)NC(=O)[C@H](CO)NC(=O)[C@H](CO)NC(=O)[C@H](CCCNC(=N)N)NC(=O)[C@H](Cc1c[nH]cn1)NC(=O)[C@H](CC(C)C)NC(=O)[C@H](Cc1ccccc1)NC(=O)[C@H](CCC(=O)O)NC(=O)[C@H](C)NC(=O)[C@H](CC(C)C)NC(=O)[C@H](CCCNC(=N)N)NC(=O)[C@H](CCC(N)=O)NC(=O)[C@@H](NC(=O)[C@H](C)NC(=O)[C@@H]1CSSC[C@H](NC(=O)[C@H](CCCNC(=N)N)NC(=O)CC[C@H](NC(=O)CCCCCCCCCCCCCCCCCCC(=O)O)C(=O)O)C(=O)N[C@@H](CC(N)=O)C(=O)N[C@@H]([C@@H](C)O)C(=O)N[C@@H](C)C(=O)N[C@@H]([C@@H](C)O)C(=O)N1)[C@@H](C)O [Compound 82, [19CD]-isoGlu-RC()NTATC()ATQRLAEFLHRSSF-Gly(Me)-A-Ile(Me)-LSSTEVGSETP-NH2] ({C20 diacid-γGlu}-RCNTATCATQRLAEFLHRSSF[Sar]A[NMeI]LSSTEVGSETP-NH2; disulfide 2-7) | SS (SS indicates solubility ≥ 1mg/ml) | SS (SS indicates solubility ≥ 1mg/ml) | SS (SS indicates solubility ≥ 1mg/ml) | SS (SS indicates solubility ≥ 1mg/ml) | SS (SS indicates solubility ≥ 1mg/ml) | SS (SS indicates solubility ≥ 1mg/ml) | SS (SS indicates solubility ≥ 1mg/ml) | FND | FND | FND | 93 | 13 ± 1.0
CC[C@H](C)[C@@H](C(=O)N[C@@H](CC(C)C)C(=O)N[C@@H](CO)C(=O)N[C@@H](CO)C(=O)N[C@H](C(=O)N[C@@H](CC(N)=O)C(=O)N[C@H](C(=O)NCC(=O)N[C@@H](CO)C(=O)N[C@@H](CC(N)=O)C(=O)N[C@H](C(=O)N1CCC[C@H]1C(N)=O)[C@@H](C)O)C(C)C)[C@@H](C)O)N(C)C(=O)[C@H](C)NC(=O)CN(C)C(=O)[C@H](Cc1ccccc1)NC(=O)[C@H](CC(N)=O)NC(=O)[C@H](CC(N)=O)NC(=O)[C@H](CO)NC(=O)[C@H](CO)NC(=O)[C@H](CCCNC(=N)N)NC(=O)[C@H](Cc1c[nH]cn1)NC(=O)[C@H](CC(C)C)NC(=O)[C@H](Cc1ccccc1)NC(=O)[C@H](CCC(=O)O)NC(=O)[C@H](C)NC(=O)[C@H](CC(C)C)NC(=O)[C@H](CCCNC(=N)N)NC(=O)[C@H](CCC(N)=O)NC(=O)[C@@H](NC(=O)[C@H](C)NC(=O)[C@@H]1CSSC[C@H](NC(=O)[C@H](CCCCN)NC(=O)[C@H](CCCCN)NC(=O)CC[C@H](NC(=O)CCCCCCCCCCCCCCCCCCC(=O)O)C(=O)O)C(=O)N[C@@H](CC(N)=O)C(=O)N[C@@H]([C@@H](C)O)C(=O)N[C@@H](C)C(=O)N[C@@H]([C@@H](C)O)C(=O)N1)[C@@H](C)O [Compound 87, [19CD]-isoGlu-KKC()NTATC()ATQRLAEFLHRSSNNF-Gly(Me)-A-Ile(Me)-LSSTNVGSNTP-NH2] ({C20 diacid-γGlu}-KKCNTATCATQRLAEFLHRSSNNF[Sar]A[NMeI]LSSTNVGSNTP-NH2; disulfide 3-8) | SS (SS indicates solubility ≥ 1mg/ml) | SS (SS indicates solubility ≥ 1mg/ml) | SS (SS indicates solubility ≥ 1mg/ml) | SS (SS indicates solubility ≥ 1mg/ml) | SS (SS indicates solubility ≥ 1mg/ml) | SS (SS indicates solubility ≥ 1mg/ml) | SS (SS indicates solubility ≥ 1mg/ml) | 78^‡ hours | FND | 50^‡‡ hours | 98 | 10 ± 1.2
